Patent US6391921B1 (priority 2000, dated 2002)

Assays:
RBL-2H3 mast cells = assay: Ionomycin or thapsigargin induced calcium mobilization in mast cells; format: cell-based, rat; details: 30 μM compound for 20 minutes, FIG. 2B
Source text: An alternative mechanism for the cells to maintain low cytosolic calcium levels is the activation of cell plasma membrane calcium ATPase or calcium pump (refs 32 and 33). Therefore, the effect of compound D-58 on ionophore and thapsigargin induced calcium mobilization also was studied. Ionomycin takes extracellular calcium inside the cells, and bypasses most of the signal transduction events, whereas thapsigargin inhibits endoplasmic reticulum calcium pump, and selectively depletes IP3-sensitive storage resulting in an increase in the cytosolic calcium levels (ref 33). In summary, IgE-sensitized RBL-2H3 cells were treated with 30 μM compound D-58 for 20 minutes and challenged with DNP-BSA (20 ng/ml). The cells were then stimulated with either ionomycin (1 μM), or thapsigargin (2 μM). The arrows indicate the time points at which the cells were exposed to the agents.
The fluorescent Ca^2+ indicator, fluo-3/AM (Molecular Probes) was used to detect Ca^2+ mobilizations in individual cells (ref 25). Briefly, the IgE sensitized monolayers of mast cells were incubated with 1 μM fluo-3/AM at 37° C. for 30 minutes. After incubation the cells were washed twice and 1 ml PIPES buffer was added to the wells. […] The image acquisition and fluorescence intensity analysis were controlled by the software MetaFluor (Universal Imaging Co.). The background fluorescence was subtracted from each image.

SYK = biological target: T1, SYK (Homo sapiens, UniProt P43405); assay: SYK tyrosine kinase assay; format: biochemical; details: 1 hour exposure
T1 construct: made in house; host or cells: Sf21 insect cells (baculovirus)
Procedure: Sf21 (IPLB-SF21-AE) cells derived from the ovarian tissue of the fall armyworm Spodotera frugiperda, were obtained from Invitrogen and maintained at 26-28° C. in Grace's insect cell medium supplemented with 10% FBS and 1.0% antibiotic/antimycotic (GIBCO-BRL). Stock cells were maintained in suspension at 0.2-1.6×10^6/ml in 600 ml total culture volume in 1 L Bellco spinner flasks at 60-90 rpm. Cell viability was maintained at 95-100% as determined by trypan blue dye exclusion.
Sf21 cells were infected with a baculovirus expression vector for BTK or SYK, as previously described (refs 18 and 19). […]
Following electrophoresis, kinase gels were dried onto Whatman 3M filter paper and subjected to phosphoimaging on a Molecular Imager (Bio-Rad, Hercules, Calif.) as well as autoradiography on film. […] For each drug concentration, a BTK or SYK kinase activity index was determined by comparing the ratios of the kinase activity in phosphorimager units (PIU) and density of the protein bands in densitometric scanning units (DSU) to those of the baseline sample and using the formula: Activity Index=[PIU of kinase band/DSU of BTK/SYK protein band]test sample: [PIU of kinase band/DSU of BTK/SYK protein band]baseline control sample.

SMILES: COc1ccc(CC(=O)c2c(O)cc(O)cc2O)cc1 [Compound D-58]
- calcium response induced by ionomycin (RBL-2H3 mast cells; 1 μM ionomycin): did not inhibit
- calcium response induced by thapsigargin (RBL-2H3 mast cells; 2 μM thapsigargin): did not inhibit
- IC50 (SYK; first experiment, FIG. 1B): 36.9 µM
- IC50 (SYK; second experiment, FIG. 1C): < 10 µM
